# Assay results from patent US4124726A, “Anti-inflammatory agent of benzoyl derivative” (priority 1976, dated 1978).
# Legend:
# platelet aggregation = assay: blood platelet aggregation inhibition, collagen as inducer; format: cell-based; details: 10^-4 mole, rabbit PRP
# Description: Blood platelet aggregation inhibiting effect
# Male rabbits (Japan original white strain 3.3 to 3.6 kg) were anesthetized with Thiopental sodium and blood was sampled from the carotid artery.
# in vivo = details: mouse, po
# Protocol: Each sample was dissolved in olive oil or dispersed in 1% Tween 20 aqueous solution.
# [1] = system: painful stretchings induced by acetic acid; assay: acetic acid induced stretching (analgesic effect); details: 100 mg/kg oral, 0.7% acetic acid i.p., mice
# Protocol: Each sample was orally administrated in the dosage of 100 mg/kg before injection of acetic acid.
Compound,Blood platelet agg. inh. (percentage inhibition of platelet aggregation) (platelet aggregation),LD50 at 72 h (in vivo),Analgesic (percentage diminution of times of painful stretchings) [1]
CCCCc1ccc(C(=O)c2ccc(OC)cc2)cc1 [compound 18],9.3%,2000 mg/kg,20.1%
CCCCCc1ccc(C(=O)c2ccccc2)cc1 [compound 23],13.8%,5000 mg/kg,10.1%
CCCCCCc1ccc(C(=O)c2ccccc2)cc1 [compound 24],10.5%,6000 mg/kg,47.7%
CCCCCCc1ccc(C(=O)c2ccc(C)cc2)cc1 [compound 36],15.1%,> 10000 mg/kg,–
CCCCc1ccc(C(=O)Cc2ccccc2)cc1 [compound 39],2.6%,> 10000 mg/kg,–
Cc1ccc(C(=O)Cc2ccccc2)cc1 [compound 48],20.5%,–,–
CCCCCCCCCCc1ccc(C(=O)Cc2ccccc2)cc1 [compound 50],8.7%,> 10000 mg/kg,–
CCCCCCCCCCCc1ccc(C(=O)Cc2ccccc2)cc1 [compound 51],9.5%,–,–
CCCCCCCCCCCCc1ccc(C(=O)Cc2ccccc2)cc1 [compound 52],6.8%,–,–
CCc1ccc(C(=O)C(=O)c2ccccc2)cc1 [compound 55],23.3%,–,–
CCCOc1ccc(C(=O)Cc2ccccc2)cc1 [compound 58],20.1%,–,–
CCCCCOc1ccc(C(=O)Cc2ccccc2)cc1 [compound 59],25.6%,–,–
COc1ccc(C(=O)Cc2ccc(Cl)cc2)cc1 [compound 60],4.0%,–,–
Cc1ccc(C(=O)c2ccccc2)cc1 [compound 65],21.0%,–,–
CCCCCCCCCCc1ccc(C(=O)c2ccccc2)cc1 [compound 68],16.5%,–,–
CCCCCCCCCCCCc1ccc(C(=O)c2ccccc2)cc1 [compound 69],13.5%,–,–
CCCCCCCCCCCc1ccc(C(=O)c2ccccc2)cc1 [compound 71],19.5%,–,–
CCCCc1ccc(CCCC)c(C(=O)c2ccccc2)c1 [compound 77],25.1%,–,–
Cc1cc(C)c(C)c(C(=O)c2ccccc2)c1C [compound 78],19.9%,–,–
CCc1ccc(CC)c(C(=O)c2ccccc2)c1 [compound 80],30.3%,–,–
CCOc1ccc(C(=O)c2ccccc2)cc1 [compound 81],18.3%,–,–
C=Cc1ccc(C(=O)c2ccccc2)cc1 [compound 82],20.5%,–,–

Compound,Blood platelet agg. inh. (percentage inhibition of platelet aggregation) (platelet aggregation),LD50 at 72 h (in vivo),Analgesic (percentage diminution of times of painful stretchings) [1]
Cc1ccc(C(=O)c2ccc(C)cc2)cc1 [compound 83],27.6%,–,–
Cc1ccc(C(=O)c2c(C)cc(C)cc2C)cc1 [compound 86],28.3%,–,–
CCCc1ccc(C(=O)c2cccc(C)c2)cc1 [compound 87],30.1%,–,–
CCCCc1ccc(C(=O)c2cccc(C)c2)cc1 [compound 88],24.5%,–,–
CCCc1ccc(C(=O)c2ccc(OC)cc2)cc1 [compound 93],24.4%,–,–
CCCCOc1ccc(C(=O)c2ccc(CCCC)cc2)cc1 [compound 95],30.0%,–,–
CCCc1ccc(C(=O)c2ccc(C)cc2C)cc1 [compound 96],28.5%,–,–
CCCc1ccc(C(=O)c2c(C)cc(C)cc2C)cc1 [compound 97],26.8%,–,–
CCCCCCCc1ccc(C(=O)c2ccc(CCCC)cc2)cc1 [compound 100],22.4%,–,–
CCCCCCCCc1ccc(C(=O)c2ccc(CCCC)cc2)cc1 [compound 101],27.9%,–,–
CCCCCCCCCc1ccc(C(=O)c2ccc(CCCC)cc2)cc1 [compound 102],30.4%,–,–
Cc1cc(C)c(C(=O)c2ccc(O)cc2)c(C)c1 [compound 108],28.4%,–,–
O=C(c1ccccc1)c1ccc(O)cc1 [compound 109],13.7%,–,–
CCCc1ccc(C(=O)c2ccc(CCC)cc2)cc1 [compound 110],20.5%,–,–
CCCCCc1ccc(C(=O)c2ccc(CCCCC)cc2)cc1 [compound 111],10.3%,–,–
CCCc1ccc(C(=O)c2ccc(CC)cc2)cc1 [compound 112],11.8%,–,–
O=C(c1ccc(F)cc1)c1ccccc1Cl [compound 115],25.4%,–,–
COc1ccc(C(=O)c2ccccc2F)cc1 [compound 116],–,4000 mg/kg,–
CC(C)c1ccc(C(=O)c2ccccc2F)cc1 [compound 117],–,1500 mg/kg,–
CC(C)Cc1ccc(C(=O)c2ccccc2F)cc1 [compound 118],–,2000 mg/kg,–
CCC(C)c1ccc(C(=O)c2ccccc2F)cc1 (stereo not shown) [compound 119],–,2000 mg/kg,–
CC(C)(C)c1ccc(C(=O)c2ccccc2F)cc1 [compound 120],–,750 mg/kg,–

Compound,Blood platelet agg. inh. (percentage inhibition of platelet aggregation) (platelet aggregation),LD50 at 72 h (in vivo),Analgesic (percentage diminution of times of painful stretchings) [1]
CCC(C)(C)c1ccc(C(=O)c2ccccc2F)cc1 [compound 122],–,2000 mg/kg,–
CCCCc1ccc(C(=O)c2cccc(F)c2)cc1 [compound 123],–,1500 mg/kg,–
CCCCCc1ccc(C(=O)c2cccc(F)c2)cc1 [compound 124],–,3000 mg/kg,–
Cc1cc(C)c(C(=O)c2cccc(F)c2)c(C)c1 [compound 125],–,1000 mg/kg,–
Cc1ccc(C(=O)c2cccc(F)c2)c(C)c1 [compound 126],–,1000 mg/kg,–
CCCCc1ccc(C(=O)c2ccc(F)cc2)cc1 [compound 127],–,5000 mg/kg,–
CCCCCc1ccc(C(=O)c2ccc(F)cc2)cc1 [compound 128],–,4000 mg/kg,–
CCCCCCCCc1ccc(C(=O)c2ccc(F)cc2)cc1 [compound 129],–,> 10000 mg/kg,–
Cc1ccc(C(=O)c2ccc(F)cc2)c(C)c1 [compound 130],–,2000 mg/kg,–
Cc1cc(C)c(C(=O)c2ccc(F)cc2)c(C)c1 [compound 131],–,2000 mg/kg,–
CCCc1ccc(C(=O)c2ccccc2Cl)cc1 [compound 132],–,2000 mg/kg,–
CCCCCc1ccc(C(=O)c2ccccc2Cl)cc1 [compound 133],–,2000 mg/kg,–
CCCCCCCCc1ccc(C(=O)c2ccccc2Cl)cc1 [compound 134],–,3000 mg/kg,–
Cc1ccc(C(=O)c2ccccc2Cl)c(C)c1 [compound 135],–,1000 mg/kg,–
COc1ccc(C(=O)c2ccc(Cl)cc2)cc1 [compound 136],–,2000 mg/kg,–
CCCCOc1ccc(C(=O)c2ccc(Cl)cc2)cc1 [compound 137],–,2000 mg/kg,–
CCCCCCOc1ccc(C(=O)c2ccc(Cl)cc2)cc1 [compound 138],–,2500 mg/kg,–
CCCc1ccc(C(=O)c2cccc(Cl)c2)cc1 [compound 139],–,1000 mg/kg,–
CCCCCc1ccc(C(=O)c2cccc(Cl)c2)cc1 [compound 140],–,1000 mg/kg,–
CCCCCCCCc1ccc(C(=O)c2cccc(Cl)c2)cc1 [compound 141],–,2000 mg/kg,–
CCCc1ccc(C(=O)c2ccccc2Br)cc1 [compound 142],–,1500 mg/kg,–
CCCCc1ccc(C(=O)c2ccccc2Br)cc1 [compound 143],–,1500 mg/kg,–

Compound,Blood platelet agg. inh. (percentage inhibition of platelet aggregation) (platelet aggregation),LD50 at 72 h (in vivo),Analgesic (percentage diminution of times of painful stretchings) [1]
CCCCCc1ccc(C(=O)c2ccccc2Br)cc1 [compound 144],–,1500 mg/kg,–
CCCCCCCCc1ccc(C(=O)c2ccccc2Br)cc1 [compound 145],–,2000 mg/kg,–
Cc1ccc(C(=O)c2ccccc2Br)c(C)c1 [compound 146],–,1000 mg/kg,–
Cc1cc(C)c(C(=O)c2ccccc2Br)c(C)c1 [compound 147],–,1000 mg/kg,–
CCCCCCCCc1ccc(C(=O)c2cccc(Br)c2)cc1 [compound 148],–,2000 mg/kg,–
Cc1ccc(C(=O)c2cccc(Br)c2)c(C)c1 [compound 149],–,500 mg/kg,–
CCCc1ccc(C(=O)c2ccc(Br)cc2)cc1 [compound 150],–,2000 mg/kg,–
CCCCCCCCc1ccc(C(=O)c2ccc(Br)cc2)cc1 [compound 151],–,2500 mg/kg,–
Cc1ccc(C(=O)c2ccc(Br)cc2)c(C)c1 [compound 152],–,1500 mg/kg,–
Cc1cc(C)c(C(=O)c2ccc(Br)cc2)c(C)c1 [compound 153],–,1500 mg/kg,–
CCCc1ccc(C(=O)c2ccccc2I)cc1 [compound 154],–,> 10000 mg/kg,–
CCCCc1ccc(C(=O)c2ccccc2I)cc1 [compound 155],–,> 10000 mg/kg,–
CCCCCc1ccc(C(=O)c2ccccc2I)cc1 [compound 156],–,> 10000 mg/kg,–
CCCCCCCCc1ccc(C(=O)c2ccccc2I)cc1 [compound 157],–,> 10000 mg/kg,–
Cc1ccc(C(=O)c2ccccc2I)c(C)c1 [compound 158],–,2000 mg/kg,–
Cc1cc(C)c(C(=O)c2ccccc2I)c(C)c1 [compound 159],–,1000 mg/kg,–
CCCCc1ccc(C(=O)c2cccc(I)c2)cc1 [compound 160],–,2500 mg/kg,–
Cc1ccc(C(=O)c2cccc(I)c2)c(C)c1 [compound 162],–,1500 mg/kg,–
Cc1cc(C)c(C(=O)c2cccc(I)c2)c(C)c1 [compound 163],–,1500 mg/kg,–
CCCCCCCCc1ccc(C(=O)c2ccc(I)cc2)cc1 [compound 164],–,> 10000 mg/kg,–
Cc1ccc(C(=O)c2ccc(I)cc2)c(C)c1 [compound 165],–,5000 mg/kg,–
Cc1cc(C)c(C(=O)c2ccc(I)cc2)c(C)c1 [compound 166],–,5000 mg/kg,–
